Laboratory results published in patent publication US20230095498A1, “NOVEL COMPOUND AND USE THEREOF” (THE CATHOLIC UNIVERSITY OF KOREA INDUSTRY-ACADEMIC …, priority 2020, published 2023).

Experiments:
HK-1 cells = assay: Tac-induced apoptosis analysis with PI and Annexin-V; assay type: cell-based, human; details: Tac combined with SD911 (10 μM), compared to Tac alone
Procedure: In HK-1 cells, the effect of SD911 on ROS production inhibitory ability and apoptosis reduction was identified. Based on the cell viability test results of Example 2 (FIG. 2), inhibitory effects of SD911 on ROS production were investigated at 1, 5, and 10 μM of SD911.

mouse splenocytes = assay: Toxicity test (CCK-8) on mouse splenocytes; assay type: cell-based; details: SD911 1, 5, 20 μM, 3 days
Procedure: After 80% seeding of HK-2 cells, 24 hours later, tacrolimus was treated at a concentration of 60 to 70 μg/ml and SD911 was treated at a concentration of 1 to 20 μM and reacted for 3 to 12 hours. In the case of cells isolated as a single cell from mouse spleen tissue, after seeding 2×10^5/cell/200 μl in a 96-well plate in triplicate, each SD911 compound was treated with 1 to 20 μM and reacted for 3 days. Thereafter, the cell counting kit-8 (CCK-8, Dojindo molecular, Rockville, Mass., USA) reagent was treated for 2 hours, and then measured and analyzed at absorbance of 450 nm.

HK-2 cells [1] = assay: Reactive oxygen species (ROS) measurement by DCF-DA flow cytometry in HK-2 cells; assay type: cell-based, human
Procedure: After 80% seeding of HK-2 cells, 24 hours later, tacrolimus was treated at a concentration of 60 to 70 μg/ml and SD911 was treated at a concentration of 1 to 20 μM and reacted for 3 to 12 hours, and then 10 μM of DCF-DA (Molecular probes, Carlebad, Calif., USA) was reacted at 37° C. for 1 hour. Then, cells were harvested and analyzed with 0.05% Trypsin and 0.53 mM EDTA. For analysis, aggregated or broken cells were removed using FSC (forward side scatter) and SSC (side scatter) scatter plots (dot plot) using a FACS Calibur (BD bioscience, San Jose, Calif., USA), and the fluorescence fraction was analyzed in the FL-1H channel (Excitation 488 nm, Emission 513 to 535 nm). Based on the cell viability identification results of Example 1, the ROS production inhibitory effect on 1, 5, and 10 μM of SD911 was investigated. […] In […] cells, the effect of SD911 on ROS production inhibitory ability and apoptosis reduction was identified. Based on the cell viability test results of Example 2 (FIG. 2), inhibitory effects of SD911 on ROS production were investigated at 1, 5, and 10 μM of SD911.

HK-2 cells [2] = assay: Cell viability (CCK-8) in HK-2 cells under cytotoxicity induction by tacrolimus; assay type: cell-based, human; details: for survival rate: Nil = 100%
Procedure: The human kidney-2 cell line used in this experiment was purchased from ATCC (Manassas, Va., USA) and used. These cells were cultured in Dulbecco's modified Eagle's medium (DMEM; Wisent) containing 10% fetal bovine serum (FBS; Wisent, St. Bruno, Que, Canada), 100 U/mL penicillin, and […] streptomycin (Wisent) in 5% CO2, 37° C. incubator. After 80% seeding of HK-2 cells, 24 hours later, tacrolimus was treated at a concentration of 60 to 70 μg/ml and SD911 was treated at a concentration of 1 to 20 μM and reacted for 3 to 12 hours. In the case of cells isolated as a single cell from mouse spleen tissue, after seeding 2×10^5/cell/200 μl in a 96-well plate in triplicate, each SD911 compound was treated with 1 to 20 μM and reacted for 3 days. Thereafter, the cell counting kit-8 (CCK-8, Dojindo molecular, Rockville, Mass., USA) reagent was treated for 2 hours, and then measured and analyzed at absorbance of 450 nm. The cytoprotective effect of an SD911 compound was investigated under HK-2 cytotoxicity induction by tacrolimus (Tac).

IL-10 = IL-10 ELISA of cell culture medium under anti-CD3 immune activity; assay type: cell-based, mouse; details: anti-CD3 stimulation, 3 days, compared to group not treated with SD911
Procedure: (§1) Cell culture for ELISA was coated with 250 ul of mouse anti-CD3 antibody diluted in ccPBS with 0.5 μg/ml in a 24-well plate as many as the number of conditions. After incubation for 2 hours, the supernatant was removed and the cells were seeded at 1×10^6/cells/1 ml and then treated with each drug. After culturing for 3 days, only the cell culture medium was removed and used as IL-10 and IL-17 ELISA samples.

[3] = tested on: immunodeficient mice (NSG) injected with transplantation rejection patient PBMCs; assay: Transplantation rejection patient imitation avatar (humanized NSG mouse) model, immunosuppressant effect; assay type: in vivo; details: group injected with transplantation rejection patient PBMCs
Source text: In order to produce the transplantation rejection avatar animal model of an embodiment of the present invention, PBMCs (peripheral blood mononuclear cells) derived from normal or transplantation rejection patients were intravascularly injected into 8 to 10 week old immunodeficient mice (NSG) at 5×10^6/mice. After 3 weeks, the engraftment of normal or transplantation rejection patients (kidney transplantation rejection patients) cells in the blood was identified in blood cells. Thereafter, the mice were sacrificed 4 weeks after cell transplantation to identify the infiltration of human cells and histological changes in the tissue (FIG. 8).
In order to identify that the transplantation rejection patient imitation avatar model in Example 8 above was properly constructed, engraftment of human cells was analyzed through flow cytometry. Specifically, blood was obtained from the transplantation rejection humanized mice of Example 1 (normal PBMC injection group, HC; transplantation rejection patient PBMC injection group, Patient), and then cells that were positive in reaction with human antibodies were analyzed. In addition, blood […] (SCR) concentration was measured as an index for measuring kidney damage in PBMC-injected mice of normal subjects and transplantation rejection patients. SCR was measured by the quantitative enzymatic colorimetric method (Stanbio laboratory, 0430-120) by isolating serum in animal blood.
Specifically, the transplantation rejection humanized mouse model established in Example 8 above was classified as 1) a normal PBMC injection group, 2) a normal PBMC injection group treated with an immunosuppressant, 3) a transplantation rejection patient PBMC injection group, and 4) a transplantation rejection patient PBMC injection group treated with an immunosuppressant. SD911 was used as the immunosuppressant. Specifically, the animal model of Example 8 above was treated with SD911 at 3 weeks after engraftment of PBMCs. and the same amount of physiological saline was treated as a control group. […]

[4] = biological target: T1, S1P (Sphingosine 1-phosphate) lyase (Mus musculus, UniProt Q8R0X7); assay: S1P lyase (SPL) activity in liver lysate, HPLC; assay type: biochemical; details: 5 uM inhibitor, 37° C. for 1 hour
T1 construct: After homogenizing the liver tissue of an experimental animal in a lysis buffer; from tissue; host or cells: liver tissue homogenate of an experimental animal
T1 sequence (Q8R0X7 1-568): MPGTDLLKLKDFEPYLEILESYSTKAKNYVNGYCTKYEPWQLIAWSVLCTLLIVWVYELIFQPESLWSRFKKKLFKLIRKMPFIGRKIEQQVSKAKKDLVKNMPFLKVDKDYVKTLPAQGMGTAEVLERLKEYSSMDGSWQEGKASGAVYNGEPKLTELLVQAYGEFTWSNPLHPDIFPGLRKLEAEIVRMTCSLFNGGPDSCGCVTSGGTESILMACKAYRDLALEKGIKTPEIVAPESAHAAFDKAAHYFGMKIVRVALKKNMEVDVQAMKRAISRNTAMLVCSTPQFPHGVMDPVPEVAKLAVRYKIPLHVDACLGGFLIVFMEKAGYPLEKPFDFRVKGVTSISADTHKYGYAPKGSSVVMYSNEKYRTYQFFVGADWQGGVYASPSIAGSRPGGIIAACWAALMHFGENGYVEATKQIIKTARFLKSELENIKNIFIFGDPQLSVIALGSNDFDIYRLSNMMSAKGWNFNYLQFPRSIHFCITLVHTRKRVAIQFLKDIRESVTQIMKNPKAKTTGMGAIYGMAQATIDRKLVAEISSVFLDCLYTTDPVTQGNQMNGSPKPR
Procedure: After homogenizing the liver tissue of an experimental animal in a lysis buffer, protein quantification was performed to secure the concentration, and a mixed solution was prepared under the conditions shown in Table 1 below and reacted at 37° C. for 1 hour.

IL-17 = IL-17 ELISA of cell culture medium under anti-CD3 immune activity; assay type: cell-based, mouse; details: anti-CD3 stimulation, 3 days, compared to group not treated with SD911
Procedure: as §1

SMILES | ratio of necrotic cells, apoptotic cells, and early apoptotic cells & necrotic cells (HK-1 cells) | toxicity on immune cells (cell viability vs Nil group) (mouse splenocytes) | ROS (DCF-DA fluorescence fraction) (HK-2 cells [1]; 1 μM SD911 combined with tacrolimus) [%] | ROS (DCF-DA fluorescence fraction) (HK-2 cells [1]; 5 μM SD911 combined with tacrolimus) [%] | ROS (DCF-DA fluorescence fraction) (HK-2 cells [1]; 10 μM SD911 combined with tacrolimus) [%] | fluorescence fraction of DCF-DA (ROS) (HK-2 cells [1]; SD911 alone at 1, 5 and 10 μM, compared to Nil) | survival rate (HK-2 cells [2]; 1 μM SD911 in combination with tacrolimus) [%] | survival rate (HK-2 cells [2]; 5 μM SD911 in combination with tacrolimus) [%] | survival rate (HK-2 cells [2]; 10 μM SD911 in combination with tacrolimus) [%] | survival rate (HK-2 cells [2]; 20 μM SD911 in combination with tacrolimus) [%] | own drug toxicity (cell viability compared to Nil) (HK-2 cells [2]; SD911 alone at 1, 5, 10 and 20 μM) | IL-10 level (ELISA) (IL-10) | damage to kidney tissue (GN score, IN score, Vasculitis) ([3]; SD911 at 3 weeks after engraftment, sacrifice 1 week later) | infiltration of IL-17 positive cells in kidney tissue ([3]; immunohistochemical staining) | infiltration of human CD4-positive cells in kidney tissue ([3]; immunohistochemical staining) | reduction of S1P lyase activity compared to the control [4] | IL-17 level (ELISA) (IL-17) | ROS (DCF-DA fluorescence fraction) (HK-2 cells [1]; tacrolimus (Tac) alone, induction of HK-2 cytotoxicity) [%] | survival rate (HK-2 cells [2]; tacrolimus (Tac) alone) [%]
C[C@@H]1CN(c2nnc(Oc3ccccc3)c3ccccc23)CCN1c1ccc(C#N)cn1 [SD911, 6-((R)-2-methyl-4-(1-phenoxyphthalazin-4-yl)piperazin-1-yl)pyridine-3-carbonitrile] | significantly alleviated compared to Tac alone | no significant difference compared to the Nil group | 36.5 | 13.7 | 9.3 | almost no difference from that of Nil | 81.7 | 81.8 | 72.0 | 37.4 | did not have its own drug toxicity | increased IL-10 in a concentration-dependent manner | the damage to the kidney tissue was reduced | significantly reduced | significantly reduced | about 30% | decreased IL-17 | – | –
C=CC[C@@H]1/C=C(\C)C[C@H](C)C[C@H](OC)[C@H]2O[C@@](O)(C(=O)C(=O)N3CCCC[C@H]3C(=O)O[C@H](/C(C)=C/[C@@H]3CC[C@@H](O)[C@H](OC)C3)[C@H](C)[C@@H](O)CC1=O)[C@H](C)C[C@@H]2OC [tacrolimus, reference compound] | – | – | – | – | – | – | – | – | – | – | – | – | – | – | – | – | – | 31.6 | 56.7
